The source of these data is patent publication US11414379B2, “SPAK kinase inhibitors as neuroprotective agents” (United States Government as represented by the Department …, priority 2018, dated 2022).

Each structure is given as a SMILES string. Where two headings read alike, the source gives them in different places.

Data set [1] relates to Ang II-mediated hypertensive mice, pdMCAO. In words: Neurological function tests in HTN mice after pdMCAO. The data set is classed as in vivo, mouse. The conditions noted are these: male HTN mice; 1-14 days post-pdMCAO. As for the experimental part: Foot fault, cylinder test, and adhesive tape removal tests were used to assess pdMCAO-induced somatosensory and motor deficits in HTN mice in a blinded manner as described previously (Bhuiyan et al. (2017)J Cereb Blood Flow Metab. 37:2780-2794; Begum et al. (2018) Glia. 66).
Cylinder test: Mice are placed in a transparent cylinder (9 cm in diameter and 15 cm in height) for 10 min and all the forelimb movements of the mice will be recorded. Forepaw (left/right/both) usage on initial contact against the cylinder wall after rearing and during lateral exploration will be recorded. Prior to ischemic stroke, animals were placed in the cylinder for 5 min to establish a baseline symmetry profile.
Foot fault test: Each mouse will be placed on a stainless-steel grid floor (20 cm×40 cm with a mesh size of 4 cm^2) elevated 1 m above the floor. […] Data will be expressed as the number of foot fault errors made by the forelimbs contralateral to the injury hemisphere as a percentage of total steps.
Adhesive contact and removal tests: A piece of adhesive tape (4 mm×3 mm) will be attached to the contralateral forepaw with equal pressure by the experimenter in each trial. The time to make first contact with the tape and the time to remove the tape will be recorded as the contact time and the removal time, respectively. […]

On the set-up of data set [2]: species or system ICR mice. The conditions noted are these: ICR, mouse, in vivo. The procedure:
Referring to Table 3, ZT-1a pharmacokinetics were determined following a single 5 mg/kg intravenous (IV) dose and a single 10 mg/kg oral (PO) dose in ICR mice (N=3 at each time point). Blood samples were collected at 0.08, 0.25, 0.5, 1, 2, 4, 8, 10 & 24 hr (IV) & 0.25, 0.5, 1, 2, 4, 8, 10 & 24 hr (PO) post dose. Samples were subjected to drug assay by LC-MS/MS, and data were analyzed by WinNonlin V6.3. Tmax=time of maximum plasma concentration, Cmax=maximum plasma concentration, AUC=area under the curve (measure of exposure), T1/2=half life, CL=plasma clearance, Vz=volume of distribution, MRT, mean residence time; F=oral bioavailability.

Data set [3] has as its system rats post-IVH (CSF hypersecretion). In words: Rate of CSF production, post-hemorrhagic hydrocephalus model. The conditions noted are these: ICV treatment for 48 hr. It counts as in vivo, rat. As for the experimental part: All animal experiments were approved by the Institutional Animal Care and Use Committee (IACUC) of the Yale University, and in accordance with the guidelines and regulations in the NIH Guide for the Care and Use of Laboratory Animals. Male Wistar rats (Harlan, Indianapolis, Ind., USA), age 8 weeks (220-230 g), were anesthetized (60 mg/kg ketamine plus 7.5 mg/kg xylazine, IP) and allowed to breathe room air spontaneously. Body temperature was maintained at 37±1° C. (Harvard Apparatus, Holliston, Mass., USA) throughout the course of the experiments. PHH was modeled using a modified protocol based on previously described methods (Karimy et al. (2015) Nature medicine 23: 997-1003; Simard et al. (2011) Transl Stroke Res 2: 227-231). […]
Rates of CSF production were measured using the method we recently published (Karimy et al. (2015) Nature medicine 23: 997-1003). […] The volume (V) of CSF that forms at a given timepoint is calculated as: V (mm^3)=π·r^2·d, where r is the radius of the capillary tube and d is the distance CSF traveled within the capillary. The rate of CSF formation (μL/min) can be calculated from the slope of the volume-time relationship. A baseline rate of spontaneous CSF secretion (no drug infusion) was calculated over 30 minutes prior to drug infusion, then compared to the calculated rate of CSF formation following 30 minutes of ZT-1a infusion. […]

Turning to `Cc1cc(C(C#N)c2ccc(Cl)cc2)c(Cl)cc1NC(=O)c1cc(Cl)ccc1O` (centres unmarked) [ZT-1a, 5-chloro-N-(5-chloro-4-((4-chlorophenyl)(cyano)methyl)-2-methylphenyl)-2-hydroxy-benzamide], in data set [1], the “foot fault, cylinder and adhesive tape removal tests” value was “less foot faults, less unilateral turns and better performance in adhesive tape removal”. The AUC in data set [2] is 2340 ng·h/mL. Moreover, in data set [2] (iv, 5 mg/kg), the C0 was determined as 14900 ng/mL, the Cl worked out at 35.5 mL/kg/min, the “MRT(0-∞)” value was determined as 0.45 h and the Vz amounted to 0.948 L/kg. Besides, in data set [2] (po, 10 mg/kg), the “MRT(0-∞)” value was found to be 3.3 h. For the same compound, the “decrease of post-IVH CSF hypersecretion” value in data set [3] is ~57±6.2%.
